The values below come from US8263609B2, “Tetrahydro-β-carbolin-sulfonamide derivatives as 5-Ht6 ligands” (Laboratorios Del Dr. Esteve, S.A., priority 2005, dated 2012).

pKi: −log10 of the molar value.

Data set [1] deals with T1, 5HT6-human recombinant receptor (Homo sapiens, UniProt P50406).
T1 construct: purchased Receptor Biology; host or cells: HEK-293 cell membranes
In words: Binding to Serotonin Receptor 5HT6 ([3H]-LSD radioligand displacement, HEK-293 cell membranes). Particulars: [3H]-LSD 2.7 nM, HEK-293 membranes; for inhibition at 0.1 µM: compound at 10^−7 M, 60 min, 37° C. The protocol:
Binding to Serotonin Receptor 5HT6
Cell membranes of HEK-293 cells expressing the 5HT6-human recombinant receptor were supplied by Receptor Biology. In said membranes the receptor concentration is 2.18 pmol/mg protein and the protein concentration is 9.17 mg/ml. The experimental protocol follows the method of B. L. Roth et al. [B. L. Roth et al., The Journal of Pharmacology and Experimental Therapeutics, 1994, 268, 1403] with the following slight changes. The respective part of the literature description is hereby incorporated by reference and forms part of the disclosure.
The commercial membrane is diluted (1:40 dilution) with the binding buffer: 50 mM Tris-HCl, 10 mM MgCl2, 0.5 mM EDTA (pH 7.4). The radioligand used is [^3H]-LSD at a concentration of 2.7 nM with a final volume of 200 μl. incubation is initiated by adding 100 μl of membrane suspension, (≈22.9 μg membrane protein), and is prolonged for 60 minutes at a temperature of 37° C. The incubation is ended by fast filtration in a Brandel Cell Harvester through fiber glass filters made by Schleicher & Schuell GF 3362 pretreated with a solution of polyethylenimine at 0.5%. The filters are washed three times with three milliliters of buffer Tris-HCl 50 mM pH 7.4. The filters are transferred to flasks and 5 ml of Ecoscint H liquid scintillation cocktail are added to each flask. The flasks are allowed to reach equilibrium for several hours before counting with a Wallac Winspectral 1414 scintillation counter. Non-specific binding is determined in the presence of 100 μM of serotonin. Tests were made in triplicate. The inhibition constants (Ki, nM) were calculated by non-linear regression analysis using the program EBDA/LIGAND described in Munson and Rodbard, Analytical Biochemistry, 1980, 107, 220, which is hereby incorporated by reference and forms part of the disclosure.

T1 sequence (P50406 whole entry): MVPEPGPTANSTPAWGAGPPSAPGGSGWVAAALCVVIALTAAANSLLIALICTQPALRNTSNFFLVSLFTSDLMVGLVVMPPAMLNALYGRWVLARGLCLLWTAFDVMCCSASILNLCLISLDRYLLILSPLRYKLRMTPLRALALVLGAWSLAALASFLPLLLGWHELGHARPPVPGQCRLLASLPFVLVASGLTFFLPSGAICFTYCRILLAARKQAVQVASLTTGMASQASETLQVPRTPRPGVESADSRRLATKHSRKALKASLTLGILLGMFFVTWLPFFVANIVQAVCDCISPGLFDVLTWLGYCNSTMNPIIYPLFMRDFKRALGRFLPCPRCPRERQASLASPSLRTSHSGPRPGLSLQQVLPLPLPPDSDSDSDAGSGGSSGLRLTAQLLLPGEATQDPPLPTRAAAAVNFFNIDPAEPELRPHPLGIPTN

Compound `CN1CCc2c([nH]c3c(NS(=O)(=O)c4csc5ccccc45)cccc23)C1` [Example 45, Benzo[b]thiophene-3-sulfonic acid (2-methyl-2,3,4,9-tetrahydro-1H-β-carbolin-8-yl)-amide] returned a melting point of 225 to 226 °C. For the same compound, the pKi in data set [1] (non-linear regression EBDA/LIGAND) is 7.53. Moreover, the inhibition at 0.1 µM in data set [1] was 87.1%.
Turning to `CN1CCc2c([nH]c3c(NS(=O)(=O)c4ccc5ccccc5c4)cccc23)C1` [Example 38, Naphthalene-2-sulfonic acid (2-methyl-2,3,4,9-tetrahydro-1H-β-carbolin-8-yl)-amide], the melting point lay within 240 to 242 °C. The inhibition at 0.1 µM in data set [1] was determined as 73.5%.
